# Assay results taken from US9359409B2, “Antimicrobial peptides, compositions comprising the same and uses thereof” (priority 2012, dated 2016).
# Like-named read-outs stand apart in the source and are kept apart here. Ends that are not written are not given here.
# Assays:
# Pseudomonas aeruginosa = assay: MIC by broth microdilution; type: cell-based
# Experimental: (§1) The 5 designed and synthesized peptides of the invention, plus omiganan (peptide of the state of the art) were evaluated for their antimicrobial capacity in microdilution assays for determining the minimum inhibitory concentration (MIC). A first panel of 8 representative strains was analyzed in these assays, encompassing Gram positive and Gram negative bacteria. […] The lowest MIC values indicate a higher antimicrobial potency.
# (§2) Subsequently, an analysis of a panel of clinical isolates including strains with different resistance mechanisms against conventional antibiotics was carried out, all of which are of clinical relevance. […] In Table 3 the results for a panel of Gram negative bacteria are shown, and in Table 4 for a panel of […] bacteria. In these tables the detected gene/s responsible for the resistance against antibiotics for each strain, are included.
# (§3) Antimicrobial activity was analyzed by means of the determination of the MIC (minimum inhibitory concentration) by the microdilution technique. The technique was carried out in the standard fashion according to (CLSI M07-A9 Vol. 32 No 2. January 2012). The peptide concentration range used was from 0.5 μg/mL to 512 μg/mL in two-fold serial dilutions. The used medium was MH Difco broth supplemented with cations, at a final concentration of Ca^++20-25 mg/L and Mg^++10-12.5 mg/L. The working inoculum used corresponds to a 1/100 dilution of a bacterial suspension equivalent to 0.5 in the Mc Farland scale.
# Staphylococcus aureus = assay: MIC by broth microdilution; type: cell-based
# Experimental: as §1, §2, §3
# E. coli = type: cell-based
# Experimental: (§4) In vitro sensitivity assay of aerobically growing bacteria, using the disc diffusion method was performed according to the standards in the M2 document of the CLSI (Clinical and Laboratory Standards Institute: Performance Standards for Antimicrobial Disk Susceptibility Tests.) using the non-amidated peptides
# (§5) In brief, intermediate solutions (10×) of the antimicrobial non-amidated peptides were prepared by serial dilutions 1:2, 1:4 and 1:8 by two-fold dilutions. Then, one part of the solution of the antimicrobial peptide 10× was added to nine parts of melted bacteriological agar. The antibiotic solution was added for each dilution, in the melted agar and cooled to 45-50° C. in a water bath. Then, the agar-antibiotic mixture was placed in a Petri dish until a 3-4 mm depth was reached. The inoculum is prepared with a turbidity of 0.5 in the McFarland scale (approximately 1-2 10^8 CFU/ml). The final inoculum required for the agar dilution test is 10^4 colony forming units (CFU) per “spot” having 5-8 mm in diameter. The inoculated plates must be incubated upside down at 35° C. for a period of 16-20 hs. MIC was recorded as the value of the lower dilution completely inhibiting bacterial development, without considering the development of a single colony or a slight film caused by the inoculum deposit. The final point in these cases will correspond to the concentration at which there is more than 80% reduction in growth as compared with the control.
# K. pneumoniae = type: cell-based
# Experimental: as §4, §5
# S. warnerii = type: cell-based
# Experimental: as §4, §5
# S. cohnii = type: cell-based
# Experimental: as §4, §5
# S. aureus = type: cell-based
# Experimental: as §4, §5
# P. aeruginosa = type: cell-based
# Experimental: as §4, §5
# E. raffinosus = system: E. raffinosus
# Experimental: as §2, §3
# S. haemolyticus = system: S. haemolyticus
# Experimental: as §2, §3
# A. baumanii = system: A. baumanii
# Experimental: as §2, §3
# E. gallinarum = system: E. gallinarum
# Experimental: as §2, §3
# Escherichia coli = system: Escherichia coli
# Experimental: as §1, §2, §3
# human erythrocytes = assay: Erythrocyte hemolysis assay (cytotoxicity); type: cell-based
# Experimental: Subsequently, the capacity of the peptides of the invention for lysing human erythrocytes was evaluated, as a measure of their cytotoxicity (Table 2). The assays were carried out according to the Examples and are expressed as a percentage of total lysis obtained with either water or the surfactant Tween 20. In this assays, the lower hemolysis percentage, the lower expected cytotoxic activity.
# Evaluation of cytotoxic activity was performed by means of an erythrocyte hemolysis assay (according to Pure Appl. Chem., Vol. 79, No. 4, pp. 717-728, 2007). In brief, from a volume of heparinized human whole blood, 3 times that volume of PBS is added and centrifuged 10 minutes at 1500 rpm, repeating the washing two more times. 10% blood solutions in PBS were prepared with that pellet. Subsequently, each group was added the corresponding peptide at the indicated concentration and incubated at 37° C. for 30 minutes. […]
substance,measurement,setting,value
"GLLKKWLKKWKEFKRIVGY-NH2 [peptide 2, GLLKKWLKKWKEFKRIVGY]",MIC,"Pseudomonas aeruginosa; P. aeruginosa M7525, resistance gene spm",64 µg/mL
same,MIC,"Pseudomonas aeruginosa; P. aeruginosa M7712, resistance gene spm",64 µg/mL
same,MIC,"Pseudomonas aeruginosa; P. aeruginosa M7723, resistance gene kpc",64 µg/mL
same,MIC,"Pseudomonas aeruginosa; P. aeruginosa M7728, resistance gene imp",64 µg/mL
same,MIC,"Pseudomonas aeruginosa; P. aeruginosa M7907, resistance gene per",64 µg/mL
same,MIC,"Staphylococcus aureus; S. aureus 28, resistance gene ermA",64 µg/mL
same,MIC,"Staphylococcus aureus; S. aureus 33, resistance gene msrA",128 µg/mL
same,MIC,"Staphylococcus aureus; S. aureus 204, resistance gene ermA",64 µg/mL
same,MIC,"Staphylococcus aureus; S. aureus 239, resistance gene ermC",64 µg/mL
same,MIC,"Staphylococcus aureus; S. aureus ATCC29213, WT",64 µg/mL
same,MIC,"Staphylococcus aureus; S. aureus M2832, resistance gene mecA",128 µg/mL
same,MIC,"Staphylococcus aureus; S. aureus M4046, resistance gene mecA",128 µg/mL
same,MIC,"Staphylococcus aureus; S. aureus M6784, resistance gene mecA",32 µg/mL
same,MIC in agar dilution,E. coli,128 µg/mL
same,MIC in agar dilution,K. pneumoniae,64 µg/mL
same,MIC in agar dilution,S. warnerii,8 µg/mL
same,MIC in agar dilution,S. cohnii,16 µg/mL
same,MIC in agar dilution,S. aureus,>128 µg/mL
same,MIC in agar dilution,P. aeruginosa,>128 µg/mL
same,MIC,E. raffinosus,8 µg/mL
same,MIC,S. haemolyticus,8 µg/mL
same,MIC,"A. baumanii; A. baumanii FAV-1, resistance gene per + oxa-51 + oxa-58",16 µg/mL
same,MIC,"A. baumanii; A. baumanii M5179, resistance gene oxa-51",32 µg/mL
same,MIC,"A. baumanii; A. baumanii M5277, resistance gene per",32 µg/mL
same,MIC,"A. baumanii; A. baumanii M5282, resistance gene oxa-51",8 µg/mL
same,MIC,"A. baumanii; A. baumanii M5949, resistance gene oxa-23 + oxa-GVI",32 µg/mL
same,MIC,"A. baumanii; A. baumanii M7489, resistance gene oxa-51 + tem",8 µg/mL
same,MIC,"A. baumanii; A. baumanii M7978, resistance gene imp",16 µg/mL
same,MIC,"A. baumanii; A. baumanii M9665, resistance gene oxa-51",4 µg/mL
same,MIC,"A. baumanii; A. baumanii M13523, resistance gene oxa-51",32 µg/mL
same,MIC,"E. gallinarum; E. gallinarum M2685, resistance gene vanC1 + vanA",16 µg/mL
same,MIC,"E. gallinarum; E. gallinarum M2723, resistance gene vanC1 + vanA",32 µg/mL
same,MIC,"Escherichia coli; E. coli ABC11, resistance gene ctx-m-2",32 µg/mL
same,MIC,"Escherichia coli; E. coli Cos15, resistance gene per + tem",64 µg/mL
same,MIC,"Escherichia coli; E. coli LCA1, resistance gene ctx-m-2 + tem-1",64 µg/mL
same,MIC,"Escherichia coli; E. coli M5306, resistance gene ctx-m-2 + tem-1 + per-2",4 µg/mL
same,MIC,"Escherichia coli; E. coli M7859, resistance gene cit",32 µg/mL
same,MIC,"Escherichia coli; E. coli M9209, resistance gene kpc",64 µg/mL
same,MIC,"Escherichia coli; E. coli NEU23, resistance gene oxa-GIII + tem",32 µg/mL
same,hemolysis values (in words),human erythrocytes,high hemolysis values
